Data taken from patent US20040033901A1, “Uses for cellulose-containing aggregates” (priority 1994, published 2004).

System: termites
Experiment: field test of termite attack on a weighted board on a one inch bed of aggregates
Type: in vivo
Conditions: one inch thick bed on ground surface in termite-infested area, after one year
From the text: In a field test, a one inch thick bed of aggregates containing either 0.1% Deltamethrin, 0.001% Deltamethrin, or no Deltamethrin were positioned on ground surface in an area known to be infested with termites and a weighted board was positioned on the top of the bed. […] Thus, at least for Deltamethrin, a toxin level of 0.001 wt % appears both effective and long lived.

Structure (SMILES): CC1(C)[C@H](C(=O)O[C@H](C#N)c2cccc(Oc3ccccc3)c2)[C@@H]1C=C(Br)Br [Deltamethrin]
- protection of board from termite attack (aggregates containing 0.001% Deltamethrin): totally protected
- protection of board from termite attack (aggregates containing 0.1% Deltamethrin): totally protected
